Patent publication US20040142888A1, “Modulators of RabGGT and methods of use thereof” (priority 2002, published 2004)

These substances were tested on HCT116 cells (assay: 3H-thymidine incorporation (proliferation) assay in HCT116 cells after siRNA treatment against RabGGT subunits). Conditions: 72 hours after siRNA/Lipofectamine 2000 treatment, average of three replicates.
Format: cell-based, human
Parameters: concentration or dose not given beside the values
Method: HCT-116 human colon tumor cells obtained from the ATCC were grown in RPMI culture medium supplemented with 10% heat inactivated FBS, 1× penicillin/streptomycin, and 25 mM HEPES, in an incubator maintained at 37° C. with CO2 at 6% and humidity at 95%. HCT116 cells were plated in 96 well plates at 2000 cells/100 μl media per well and incubated for 24 hours before RNAi treatment. For treatment, a 2× solution of Lipofectamine 2000/siRNA complexes was generated for each individual siRNA as follows. The siRNA oligonucleotides (Xeragon; Huntsville Ala.) were diluted to a final concentration of 1 μM in Optimem serum-free media (Invitrogen; Carlsbad, Calif.) and incubated for 5 minutes at room temperature. The Lipofectamine 2000 reagent (Invitrogen; Carlsbad, Calif.) was diluted to 10 μg/ml in Optimem serum-free media and incubated for 5 minutes at room temperature. Equal volumes of the 1 μM siRNA oligonucleotides and the 10 μg/ml Lipofectamine 2000 were mixed together, giving a 5× stock of siRNA/Lipofectamine 2000 complexes. After incubation for 20 minutes at room temperature, 1.5 volumes of RPMI medium containing 10% heat inactivated FBS was added to the 5× stock, resulting in a 2× stock of siRNA/Lipofectamine 2000 complexes. For RNAi treatment, 100 μof the 2× stock of siRNA/Lipofectamine 2000 complexes was added to each well containing HCT116 cells, to give a final concentration of 1× siRNA/Lipofectamine 2000 complexes. Cells were incubated for 72 hours prior to the proliferation assay. Three replicates were performed for each siRNA treatment.
The effect of RNAi treatment directed against RabGGT subunits on cellular proliferation was assayed using a 3H-thymidine incorporation assay. The principle of this assay is as follows: During S-phase of the cell cycle, cells incorporate thymidine into the new strand of genomic DNA. Tritiated thymidine can be added to the culture medium and will be incorporated into genomic DNA in proportion to the number of rounds of DNA synthesis that occur. Incorporation can be quantified following lysis of the cells and removal of unincorporated nucleotides. RNAi-treated cells prepared as described above were assayed for 3H-thymidine uptake as follows. The cells were pulsed with 3H-thymidine by addition of 20 μl of a 44 μCi/ml solution of 3H-thymidine in RPMI to each well, to obtain a final concentration of 3H-thymidine of 4 μCi/ml. After incubation for 3 h at 37° C., the medium was removed and 50 μl of 0.25% trypsin in phosphate buffered saline (140 mM NaCl, 2.7 mM KCl, 10 mM Na2HPO4 and 1.8 mM KH2PO4, pH 7.4) was added. After 10 minutes, the contents of the wells were harvested onto a 96-well GF/C filter plate (Whatman; Clifton N.J.) using a Hewlett Packard Filtermate. The filter plate was washed 10 times with distilled water, then left to dry overnight. After the addition of 50 μl of Microscint-20 scintillation fluid (Perkin Elmer; Boston, Mass.) per well, the filter plates were sealed and the amount of radioactivity retained on the filter was determined by scintillation counting. The average of the three replicate samples is reported.

| Substance | 3H-thy incorp. % of control |
| --- | --- |
| Alpha-3: siRNA against human RabGGT-alpha, coding bases 1309-1332, SEQ ID NO:05 / NO:06 (chain 1 GAUGGAGUAUGCCGAGGUGTT; chain 2 CACCUCGGCAUACUCCAUCTT; chemistry not given here) | 63% |
| Beta-2: siRNA against human RabGGT-beta, coding bases 662-685, SEQ ID NO:09 / NO:10 (chain 1 CGACAAUUACCCUCAGGCGTT; chain 2 CGCCUGAGGGUAAUUGUCGTT; chemistry not given here) | 39% |
| Alpha-1: siRNA against human RabGGT-alpha, coding bases 268-291, SEQ ID NO:01 / NO:02 (chain 1 GGCAGAACUGGGCUUCCUGTT; chain 2 CAGGAAGCCCAGUUCUGCCTT; chemistry not given here) | 33% |
| Beta-1: siRNA against human RabGGT-beta, coding bases 493-516, SEQ ID NO:07 / NO:08 (chain 1 CUUUGGCUUUGUUGGGGAATT; chain 2 UUCCCCAACAAAGCCAAAGTT; chemistry not given here) | 77% |
